Earlier results on two compounds are cited in US20080200434A1, “Chemical Target-Binding Compositions” (priority 2006, published 2008).

In general, Kd refers to the free concentration of one partner at which half of the binding sites on the other are occupied at equilibrium, for simple one-to-one binding.

For data set [1] the following is noted: chronic exposure (Hubbard, S. A. 1998).
The conditions of data set [2]: aqueous association with glucose; Lorand and Edwards 1959.

With `OB(O)O` [boric acid], the “no observed adverse effect level” value in data set [1] is reported as 9-43 mg boron/kg/day.
In the case of `OB(O)c1ccccc1` [phenylboronic acid], the Kd in data set [2] was 9.1 mM.
